According to ChEMBL document CHEMBL1150183, “Spermine alkaloids from Schweinfurthia papilionacea” (J Nat Prod, 1990):

Columns and labels:
Format in all cases: toxicity, organism-based
Salmonella typhimurium [1] = assay: Mutagenic activity in Salmonella Typhimurium TA100 assessed as number of spontaneous revertants at 500 ug/plate by Ames test in absence of rat liver microsomal S9 fraction; conditions: salmonella enterica subsp. enterica serovar typhimurium
Salmonella typhimurium [2] = assay: Mutagenic activity in Salmonella Typhimurium TA97a assessed as number of spontaneous revertants at 500 ug/plate by Ames test in absence of rat liver microsomal S9 fraction; conditions: salmonella enterica subsp. enterica serovar typhimurium
Salmonella typhimurium [3] = assay: Mutagenic activity in Salmonella Typhimurium TA98 assessed as number of spontaneous revertants at 500 ug/plate by Ames test in presence of rat liver microsomal S9 fraction; conditions: salmonella enterica subsp. enterica serovar typhimurium, microsomes
Salmonella typhimurium [4] = assay: Mutagenic activity in Salmonella Typhimurium TA100 assessed as increase in spontaneous revertants by Ames test relative to control spontaneous reversion; conditions: salmonella enterica subsp. enterica serovar typhimurium
Salmonella typhimurium [5] = assay: Mutagenic activity in Salmonella Typhimurium TA100 assessed as number of spontaneous revertants at 500 ug/plate by Ames test in presence of rat liver microsomal S9 fraction; conditions: salmonella enterica subsp. enterica serovar typhimurium, microsomes
Salmonella typhimurium [6] = assay: Mutagenic activity in Salmonella Typhimurium TA98 assessed as increase in spontaneous revertants by Ames test relative to control spontaneous reversion; conditions: salmonella enterica subsp. enterica serovar typhimurium
Salmonella typhimurium [7] = assay: Mutagenic activity in Salmonella Typhimurium TA98 assessed as number of spontaneous revertants at 500 ug/plate by Ames test in absence of rat liver microsomal S9 fraction; conditions: salmonella enterica subsp. enterica serovar typhimurium

## O=C1C[C@H]2NCCCNCCCCN(CCCN1)C(=O)[C@@H]1c3cc2ccc3O[C@H]1c1ccc(O)cc1
Salmonella typhimurium [1]
  Activity: 143
Salmonella typhimurium [2]
  Activity: 0
Salmonella typhimurium [3]
  Activity: 778
Salmonella typhimurium [4]
  fold change (FC): 4
Salmonella typhimurium [5]
  Activity: 461
Salmonella typhimurium [6]
  fold change (FC): 22
Salmonella typhimurium [7]
  Activity: 81
